Data as given in US20220402925A1, “COMPOUNDS AND METHODS FOR THE TREATMENT OF CYSTIC FIBROSIS” (Flatley Discovery Lab, LLC, priority 2019, published 2022).

Target: T1, F508del CFTR (Homo sapiens, UniProt P13569, DEL508-508)
T1 construct: Primary CF airway epithelial cells were obtained from the UNC Cystic Fibrosis Tissue Procurement and Cell Culture Core; host or cells: primary CF airway epithelial cells
Assay: Equivalent current assay in primary CF airway epithelial cells (Corrector Activity, NAUC normalized to 3 μM VX809)
Format: cell-based
Conditions: NAUC as % of positive control (VX-809)
Outline: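 Readout is NAUC: current area from forskolin/potentiator addition until CFTR-172, minus vehicle, relative to 3 μM VX809 (=1.0). Cells were primary CF epithelia at air-liquid interface ≥4 weeks, given basolateral compound for 24 h at 37° C; median of n≥4 replicates, sigmoid fit with nH fixed at 1.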

T1 sequence (P13569 with tags, fused parts or gaps DEL508-508): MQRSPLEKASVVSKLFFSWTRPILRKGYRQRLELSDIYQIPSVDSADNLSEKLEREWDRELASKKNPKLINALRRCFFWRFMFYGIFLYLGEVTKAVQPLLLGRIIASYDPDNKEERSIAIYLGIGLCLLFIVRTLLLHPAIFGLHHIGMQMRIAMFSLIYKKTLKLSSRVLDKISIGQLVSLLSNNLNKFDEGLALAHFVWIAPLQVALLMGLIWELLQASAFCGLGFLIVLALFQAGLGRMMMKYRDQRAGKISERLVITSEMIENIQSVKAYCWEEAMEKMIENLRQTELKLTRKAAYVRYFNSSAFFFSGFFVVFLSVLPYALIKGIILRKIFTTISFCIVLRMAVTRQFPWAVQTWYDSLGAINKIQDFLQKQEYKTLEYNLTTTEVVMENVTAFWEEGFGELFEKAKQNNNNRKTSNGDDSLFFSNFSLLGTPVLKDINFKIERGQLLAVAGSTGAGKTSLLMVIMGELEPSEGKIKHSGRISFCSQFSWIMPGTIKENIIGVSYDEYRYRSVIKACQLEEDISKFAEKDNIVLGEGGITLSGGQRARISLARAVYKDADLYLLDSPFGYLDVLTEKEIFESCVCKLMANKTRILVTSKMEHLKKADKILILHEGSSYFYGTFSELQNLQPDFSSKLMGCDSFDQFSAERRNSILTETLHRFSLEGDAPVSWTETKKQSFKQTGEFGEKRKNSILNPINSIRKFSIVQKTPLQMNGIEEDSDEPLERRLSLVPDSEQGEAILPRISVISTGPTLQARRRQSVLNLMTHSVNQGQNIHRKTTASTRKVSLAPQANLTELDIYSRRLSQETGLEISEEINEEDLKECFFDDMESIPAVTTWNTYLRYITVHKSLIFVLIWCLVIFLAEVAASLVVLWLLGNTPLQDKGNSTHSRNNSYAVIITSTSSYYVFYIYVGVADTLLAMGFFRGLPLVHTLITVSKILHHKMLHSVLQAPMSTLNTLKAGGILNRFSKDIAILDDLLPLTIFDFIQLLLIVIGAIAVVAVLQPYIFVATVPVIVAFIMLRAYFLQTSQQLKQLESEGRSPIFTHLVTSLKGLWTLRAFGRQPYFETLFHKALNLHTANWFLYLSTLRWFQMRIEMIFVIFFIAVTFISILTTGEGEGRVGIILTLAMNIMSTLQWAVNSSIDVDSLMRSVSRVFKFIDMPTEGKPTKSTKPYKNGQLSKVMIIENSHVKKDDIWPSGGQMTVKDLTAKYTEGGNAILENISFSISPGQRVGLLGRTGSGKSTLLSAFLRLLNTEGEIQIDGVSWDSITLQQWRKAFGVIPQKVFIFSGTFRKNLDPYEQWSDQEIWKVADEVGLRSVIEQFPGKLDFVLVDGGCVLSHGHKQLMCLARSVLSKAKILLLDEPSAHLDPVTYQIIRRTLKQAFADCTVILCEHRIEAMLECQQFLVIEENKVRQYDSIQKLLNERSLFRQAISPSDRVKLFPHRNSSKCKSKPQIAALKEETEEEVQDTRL

| Structure (SMILES) | Corr Activity (NAUC) |
| --- | --- |
| CCN(C(=O)Cn1nc(-c2cc(Cl)cc(N3CCCC3)c2)c2[nH]cnc2c1=O)c1ccc2c(c1)OC(F)(F)O2 [Example 277] | +++ (NAUC>70% of positive control) |
| Cc1nc2ccc(N(C)C(=O)Cn3nc(-c4cccc(C(C)(C)C)c4)c4occc4c3=O)cc2o1 [Example 92] | + (NAUC<40% of positive control) |
| CCN(C(=O)Cn1nc(-c2cccc(C#N)c2)c2oc(C(=O)NC3(C)CC3)cc2c1=O)c1ccc2c(c1)OC(F)(F)O2 [Example 206] | ++ (NAUC 70-40% of positive control) |
| COC(=O)c1ccc(-c2nn(CC(=O)N(C)c3ccc4c(c3)OC(F)(F)O4)c(=O)c3ccoc23)cc1C#N [Example 95] | ++ (NAUC 70-40% of positive control) |
| CCN(C(=O)Cn1nc(-c2cccc(C#N)c2)c2occc2c1=O)c1ccc2c(c1F)OC(F)(F)O2 [Example 60] | +++ (NAUC>70% of positive control) |
| CCc1cc2c(cc1N(CC)C(=O)Cn1nc(-c3cccc(C#N)c3)c3occc3c1=O)OC(F)(F)O2 [Example 56] | + (NAUC<40% of positive control) |
| CCN(C(=O)Cn1nc(-c2cc(F)cc(C#N)c2)c2oc(C3CCC3)cc2c1=O)c1ccc2c(c1)OC(F)(F)O2 [Example 238] | ++ (NAUC 70-40% of positive control) |
| CCN(C(=O)Cn1nc(-c2cc(C)cc(Cl)c2)c2occc2c1=O)c1ccc2c(c1)OC(F)(F)O2 [Example 79] | +++ (NAUC>70% of positive control) |
| Cc1cc(C#N)cc(-c2nn(CC(=O)N(C)c3cc4c(cc3C)OC(F)(F)O4)c(=O)c3ccoc23)c1 [Example 165] | +++ (NAUC>70% of positive control) |
| O=C(Cn1nc(-c2cc(F)cc(OCC(F)(F)F)c2)c2[nH]cnc2c1=O)N(c1ccc2c(c1)OC(F)(F)O2)C1CC1 [Example 393] | ++ (NAUC 70-40% of positive control) |
| CN(C(=O)Cn1nc(-c2cccc(Cl)c2)c2oc(C(=O)NCCO)cc2c1=O)c1ccc2c(c1)OC(F)(F)O2 [Example 212] | + (NAUC<40% of positive control) |
| CCN(C(=O)Cn1nc(-c2cccc(C#N)c2)c2[nH]ncc2c1=O)c1ccc2c(c1)OC(F)(F)O2 [Example 492, 2-(7-(3-cyanophenyl)-4-oxo-1,4-dihydro-5H-pyrazolo[3,4-d]pyridazin-5-yl)-N-(2,2-difluorobenzo[d][1,3]dioxol-5-yl)-N-ethylacetamide] | ++ (NAUC 70-40% of positive control) |
| CC(O)c1cc2c(=O)n(CC(=O)N(C)c3ccc4c(c3)OC(F)(F)O4)nc(-c3cccc(Cl)c3)c2o1 (stereo not drawn) [Example 183, 2-(7-(3-chlorophenyl)-2-(1-hydroxyethyl)-4-oxofuro[2,3-d]pyridazin-5(4H)-yl)-N-(2,2-difluorobenzo[d][1,3]dioxol-5-yl)-N-methylacetamide] | +++ (NAUC>70% of positive control) |
| COC(=O)c1cc(Cl)cc(-c2nn(CC(=O)N(c3ccc4c(c3)OC(F)(F)O4)C3CC3)c(=O)c3nc[nH]c23)c1 [Example 390] | + (NAUC<40% of positive control) |
| CCN(C(=O)Cn1nc(-c2cc(Cl)cc(C#N)c2)c2occc2c1=O)c1cc2c(cc1C)OC(F)(F)O2 [Example 169] | +++ (NAUC>70% of positive control) |
| CN(C)c1ccc(-c2nn(CC(=O)N(c3ccc4c(c3)OC(F)(F)O4)C3CC3)c(=O)c3nc[nH]c23)cc1C#N [Example 486] | +++ (NAUC>70% of positive control) |
| N#Cc1cc(Cl)cc(-c2nn(CC(=O)N3CCCc4c3ccc3c4OC(F)(F)O3)c(=O)c3ccoc23)c1 [Example 103] | ++ (NAUC 70-40% of positive control) |
| CCN(C(=O)Cn1nc(-c2cc(F)cc(OC)c2)c2oc(C3CCC3)cc2c1=O)c1ccc2c(c1)OC(F)(F)O2 [Example 241] | +++ (NAUC>70% of positive control) |
